This assay addresses rat acyl CoA cholesterol acyltransferase. Nature of the assay: Inhibitory action on rat acyl CoA cholesterol acyltransferase (rat liver microsome crude enzyme, [1-14C]oleoyl-CoA). The assay is classed as biochemical. The note with it: rat liver microsome fraction, pH 7.4, 37° C., 30 minutes, 30 μM oleoyl-CoA, 30 μM cholesterol; read-out: IC50 (50% inhibition concentration on the enzyme). Here is the method: An inhibitory action of the FO-1289 substance for acyl CoA cholesterol acyltransferase is tested according to the method of Kyoda et al. (J. Antibiotics, 44: 136 1991). A crude enzyme prepared from rat liver microsome fraction is added in the 100 mM phosphate buffer solution (pH 7.4) […] containing 300 μM bovine serum albumin. 30 μM (1-^14 C ) oleoyl-CoA (0.02 μCi) and 30 μM cholesterol (solubilized with 1/30 w/w Triton WR-1339) and incubaatd at 37° C. for 30 minutes. Total lipid is extracted with a mixture of chloroform-methanol (2:1), then each lipid is separated by thin layer chromatography (Kiesel gel GF254, developer:petroleum ether--diethyl ether--acetic acid=90:10:1). Radioactivity incorporated in the cholesterol ester fraction is analysed by RI scanner (Ambis Corp.) to assay an activity of acyl CoA cholesterol acyltransferase.

In the case of `CC(=O)OCC1(C)C(OC(C)=O)CCC2(C)C1CC(OC(C)=O)C1(C)Oc3cc(-c4cccnc4)oc(=O)c3C(O)C21` (stereo not shown) [FO-1289A], the IC50 stood at 40 nM.

With `CCC(=O)OCC1(C)C(OC(C)=O)CCC2(C)C1CC(OC(C)=O)C1(C)Oc3cc(-c4cccnc4)oc(=O)c3C(O)C21` (stereo not shown) [FO-1289B], the IC50 turned out to be 100 nM.

Regarding `CCC(=O)OC1CC2C(C)(COC(C)=O)C(OC(C)=O)CCC2(C)C2C(O)c3c(cc(-c4cccnc4)oc3=O)OC12C` (stereo not shown) [FO-1289C], the IC50 turned out to be 30 nM.

With `CCC(=O)OC1CCC2(C)C(CC(OC(C)=O)C3(C)Oc4cc(-c5cccnc5)oc(=O)c4C(O)C23)C1(C)COC(C)=O` (stereo not shown) [FO-1289D], the IC50 stood at 150 nM.

The values above are taken from patent publication US5807721A, “Compound FO-1289, process of production with aspergillus and strain” (The Kitasato Institute, priority 1992, dated 1998).
